Numbers after ± are expanded uncertainties.
Assays:
[1] = activity coefficient (dimensionless); of the first substance listed, at infinite dilution; xn = mol fraction of the nth substance listed; conditions: Liquid, Static method, x1 = 0
[2] = 293.15 K, 101.33 kPa, Liquid
[3] = refractive index (Na D-line) (dimensionless); conditions: 293.15 K; 101.33 kPa; Liquid; Standard Abbe refractometry

Compound | activity coefficient ([1]; 303.15 K) | activity coefficient ([1]; 313.15 K) | activity coefficient ([1]; 323.15 K) | activity coefficient ([1]; 333.15 K) | activity coefficient ([1]; 343.15 K) | mass density ([2]; Vibrating tube method) [kg/m3] | refractive index [3] | mass density [2] [kg/m3]
CCCO [propan-1-ol] + CCCCCCCC | 34.2 ± 1.8 | 26.5 ± 1.4 | 20.5 ± 0.5 | 16.2 ± 0.3 | 12.9 ± 0.2 | – | – | –
CCCCCCC [heptane] | – | – | – | – | – | 683.79 ± 0.21 | 1.3876 ± 0.0007 | –
CCCCO [butan-1-ol] + CCCCCCC | 31.3 ± 3 | 24.5 ± 1 | 19.3 ± 1 | 14.6 ± 0.8 | 11.6 ± 0.4 | – | – | –
CCCCCCCC [octane] | – | – | – | – | – | 702.76 ± 0.2 | 1.3973 ± 0.0007 | –
CCCO [propan-1-ol] + CCCCCCC | 36.2 ± 1.1 | 27.2 ± 0.7 | 21.2 ± 1 | 15.8 ± 0.4 | 12.5 ± 0.2 | – | – | –
CCCCO [butan-1-ol] + CCCCCCCC | 32.1 ± 1.6 | 23.9 ± 0.8 | 18.4 ± 0.4 | 14.5 ± 0.4 | 11.2 ± 0.8 | – | – | –
CCCCO [butan-1-ol] | – | – | – | – | – | – | 1.3992 ± 0.0007 | 809.68 ± 0.29
CCCO [propan-1-ol] | – | – | – | – | – | – | 1.3855 ± 0.0007 | 803.55 ± 0.29

— the NIST ThermoML archive (doi:10.1021/je0302295)
